From paper PMC4354947 (Journal of medicinal chemistry, 2012)
Where two headings read alike, the source gives them in different places.

Columns and labels:
human eNPP1 = test: Resistance to degradation by human eNPP1; assay type: in vitro ADME; conditions: after 20 min, 37 °C, pH 8.5
turkey P2Y1 receptor [1] = target: T1, turkey P2Y1 receptor (Meleagris gallopavo, UniProt P49652); conditions: read-out: EC50 at P2Y1R, cited from earlier work
isolated rat pancreas = conditions: listed as IA; cited from earlier work
insulin secretion = conditions: cited from earlier work
[2] = Chemical stability at acidic pH 1.4; assay type: physicochemical; conditions: pH 1.4, 37 °C, pseudo-first-order model
blood glucose levels [3] = test: Oral glucose tolerance test in naive mice; assay type: in vivo, mouse; conditions: OGTT; for effect on blood glucose levels: 30 mg/kg iv
turkey P2Y1 receptor [4] = target: T1, turkey P2Y1 receptor; test: Increase in [Ca2+]i in 1321N1 astrocytoma cells expressing turkey P2Y1 receptor; assay type: cell-based
P2Y2 receptor = test: Agonist activity at P2Y2 receptor; assay type: cell-based; conditions: data not shown
P2Y4 receptor = test: Agonist activity at P2Y4 receptor; assay type: cell-based; conditions: data not shown
P2Y6 receptor = test: Agonist activity at P2Y6 receptor; assay type: cell-based; conditions: data not shown
blood glucose levels [5] = test: Oral glucose tolerance test in naive rats; assay type: in vivo, rat; conditions: OGTT, 30 mg/kg iv, within 45 min, saline 155 mg/dL
blood glucose levels [6] = test: Glucose tolerance test in STZ diabetic mouse model; assay type: in vivo; conditions: STZ diabetic mice, 30 mg/kg iv
blood glucose levels [7] = test: Glucose tolerance test in db+/db- diabetic mouse model; assay type: in vivo; conditions: db+/db− mice, 30 mg/kg iv
tail bleeding = test: Tail-bleed assay in rats, oral administration; assay type: in vivo, rat; conditions: oral 30 mg/kg, 30 min before tail-cut
[8] = Solubility in aqueous media; assay type: physicochemical
[9] = read-out: EC50 at P2Y1R, increase in [Ca2+]i, human 1321N1 astrocytoma cells, turkey P2Y1R

T1 sequence (P49652 whole entry): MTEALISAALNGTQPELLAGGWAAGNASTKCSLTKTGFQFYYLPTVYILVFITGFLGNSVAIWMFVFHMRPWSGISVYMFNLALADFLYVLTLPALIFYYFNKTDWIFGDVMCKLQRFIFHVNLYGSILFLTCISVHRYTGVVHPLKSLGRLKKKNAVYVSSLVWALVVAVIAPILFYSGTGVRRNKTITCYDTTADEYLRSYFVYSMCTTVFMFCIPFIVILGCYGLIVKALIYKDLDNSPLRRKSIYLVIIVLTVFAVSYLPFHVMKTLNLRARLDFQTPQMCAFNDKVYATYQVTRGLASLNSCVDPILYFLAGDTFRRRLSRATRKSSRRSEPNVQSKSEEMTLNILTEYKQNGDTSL

## CSc1nc(N)c2ncn([C@@H]3O[C@H](COP(=O)(O)OP(=O)(O)O)[C@@H](O)[C@H]3O)c2n1 [2-MeS-ADP, reference compound]
Human eNPP1
  % hydrolysis of human eNPP1: 16%

## Nc1ncnc2c1ncn2[C@@H]1O[C@H](COP(=O)(O)OP(=O)(O)O)[C@@H](O)[C@H]1O [ADP, adenosine 5′ diphosphate, reference compound]
Human eNPP1
  % hydrolysis of human eNPP1: 25%

## BP(=O)(OCC1OC(n2cnc3c(N)ncnc32)C(O)C1O)OP(=O)(O)OP(=O)(O)OCC1OC(n2cnc3c(N)ncnc32)C(O)C1O (stereo not drawn) [Ap3(α-B)A]
Turkey P2Y1 receptor [1]; first-named (A) isomer
  EC50: 760 nM
Turkey P2Y1 receptor [1]; second-named (B) isomer
  EC50: 800 nM

## [BH3-][P@@](=O)(OC[C@H]1O[C@@H](n2cnc3c(N)nc(SC)nc32)[C@H](O)[C@@H]1O)OP(=O)([O-])OP(=O)([O-])[O-].[Na+].[Na+].[Na+].[Na+] [analogue 1A, 2-methylthio-ATP(α-B)]
Isolated rat pancreas
  increase of insulin secretion over basal secretion: up to 9 fold
Insulin secretion
  insulin secretion in vivo: failed to induce insulin secretion in vivo

## [BH3-][P@@](=O)(OC[C@H]1O[C@@H](n2cnc3c(N)ncnc32)[C@H](O)[C@@H]1O)OP(=O)([O-])[O-].[Na+].[Na+].[Na+] [analogue 2A, ADP(α-B)]
Human eNPP1
  % hydrolysis of human eNPP1: 5%

## [BH3-]P(=O)(OC[C@H]1O[C@@H](n2cnc3c(N)nc(SC)nc32)[C@H](O)[C@@H]1O)OP(=O)([O-])[O-].[Na+].[Na+].[Na+] (stereo partly shown) [analogue 3, 2-Methylthioadenosine 5′-O-(′-Borano)diphosphate]
[2]
  hydrolysis rate constant at pH 1.4: 2 × 10^−5 s^−1
Blood glucose levels [3]
  effect on blood glucose levels: less effective than analogue 3A alone

## [BH3-][P@@](=O)(OC[C@H]1O[C@@H](n2cnc3c(N)nc(SC)nc32)[C@H](O)[C@@H]1O)OP(=O)([O-])[O-].[Na+].[Na+].[Na+] [analogue 3A, 2-Methylthioadenosine 5′-O-(′-Borano)diphosphate, A Isomer]
Turkey P2Y1 receptor [4]
  EC50: 38 nM
P2Y2 receptor
  agonist activity at P2Y2 receptor: no activity
P2Y4 receptor
  agonist activity at P2Y4 receptor: no activity
P2Y6 receptor
  agonist activity at P2Y6 receptor: no activity
Human eNPP1
  % hydrolysis of human eNPP1: 4%
Blood glucose levels [5]
  blood glucose level after glucose load: ca. 87 mg/dL
Blood glucose levels [3]; 10 and 30 mg/kg iv
  effect on blood glucose levels, dose comparison: higher dose being more effective at reducing the glucose load
Blood glucose levels [6]
  effect on blood glucose levels: lower blood glucose levels to normal values
Blood glucose levels [7]
  effect on blood glucose levels: lower blood glucose levels to normal values
Tail bleeding
  bleeding time: increased
  tail bleeding blood volume: increased
[8]
  solubility in aqueous media: highly soluble

## [BH3-][P@](=O)(OC[C@H]1O[C@@H](n2cnc3c(N)nc(SC)nc32)[C@H](O)[C@@H]1O)OP(=O)([O-])[O-].[Na+].[Na+].[Na+] [analogue 3B, 2-Methylthioadenosine 5′-O-(′-Borano)diphosphate, B Isomer]
Blood glucose levels [3]
  effect on blood glucose levels: ineffective

## P1-Borano P1,P3-5′-Di-2-methylthioadenosine 5′-Triphosphate [analogue 4]
Turkey P2Y1 receptor [4]; analogue 4 isomers vs Ap3(α-B)A isomers
  fold increase in potency at P2Y1R by MeS substitution at C2: 4.6 fold

## P^1-Borano P^1,P^3-5′-Di-2-methylthioadenosine 5′-Triphosphate, A Isomer [analogue 4A]
Turkey P2Y1 receptor [4]; [9]
  EC50: 140 nM

## P^1-Borano P^1,P^3-5′-Di-2-methylthioadenosine 5′-Triphosphate, B Isomer [analogue 4B]
Turkey P2Y1 receptor [4]; [9]
  EC50: 190 nM
